From patent US20080051453A1, “Sorbic acid analog co-crystals” (priority 2006, published 2008)

Test: Pharmacokinetic parameters in male cynomolgus monkeys after nasogastric gavage (suspension) or oral (tablet) administration
Format: in vivo
Details: for mean AUC relative to the suspension formulation / mean Cmax relative to the suspension formulation: oral, male cynomolgus monkeys, N=4/group
Excerpt: Pharmacokinetic Parameters and Summary Statistics for Male Cynomolgus Monkeys Following Nasogastric Gavage (2% Pluronic F108 in OraPlus Suspension) or Oral (Tablet Formulations) Administration (N=4/group)

[1] = "in situ" sorbic acid cocrystal/physical blend tablet (first mention, % CV~50-60)
[2] = tablet printed again as "in situ" sorbic acid cocrystal/physical blend tablet (second mention, % CV~30-45)

| mean AUC relative to the suspension formulation [1] | mean Cmax relative to the suspension formulation [1] | mean AUC relative to the suspension formulation [2] | mean Cmax relative to the suspension formulation [2] | mean AUC relative to the suspension formulation of Example 4 (cynomolgus monkey, in vivo, po) | mean Cmax relative to the suspension formulation of Example 4 (cynomolgus monkey, in vivo, po) | Compound |
| --- | --- | --- | --- | --- | --- | --- |
| 52-63% | 52-63% | approximately 65% | approximately 65% | – | – | N-(4-(6-(4-(trifluoromethyl)phenyl)pyrimidin-4-yloxy)benzo[d]thiazol-2-yl)acetamide sorbic acid co-crystal [Example 5] |
| – | – | – | – | 17-19% | 17-19% | CC(=O)Nc1nc2c(Oc3cc(-c4ccc(C(F)(F)F)cc4)ncn3)cccc2s1 [Example 4, N-(4-(6-(4-(trifluoromethyl)phenyl)pyrimidin-4-yloxy)benzo[d]thiazol-2-yl)acetamide freebase] |
